Consider five compounds from PubChem BioAssay AID1963837 (Molecular Pharmacology Branch, DTP, NCI, 2024).

In this test the test system is 843126-344-R-J1-PDC complex spheroid viability. In words: Anticancer human tumor 843126-344-R-J1-PDC patient-derived melanoma cell line growth inhibition [POLQ]. Particulars: for viability, T/C: stronger effect = lower value. The method, then:
Multicellular complex tumor spheroid response to Polymerase (POL) inhibitors (novobiocin, ART-558, RP6685) in combination with a variety of drugs and investigational agents in selected tumor cell lines
The POL inhibitors (novobiocin, ART-558, and RP6685) were evaluated both individually and in combination with standard of care and investigational anticancer small molecules within a complex spheroid model of solid tumors. . Complex spheroids include a stromal component modeled by human endothelial cells (HUVEC) and fibroblasts modeled by human mesenchymal stem cells (MSCs). The concentration ranges selected for each drug and investigational agent were based upon clinically achievable concentrations if the clinical Cmax of the agent was known.
Compounds. The drugs and investigational agents: novobiocin (NSC847541), ART-558 (NSC835418), RP-6685 (NSC848927), peposertib (NSC802822), ceralasertib (NSC780249), elimusertib (NSC800525), camonsertib (NSC841442), AZD-1390 (NSC803789), olaparib (NSC753686), talazoparib (NSC767125), rucaparib (NSC756644), sotorasib (NSC818433), MRTX-1133 (NSC836407), SN-38 (NSC673596), topotecan (NSC609699), epotoside (NSC141540), doxorubicin (NSC123127), gemcitabine (NSC613327), 5-fluorouracil (NSC19893), paclitaxel (NSC125973), vemurafenib (NSC761431), MSA-2 (NSC828583), SN-011 (NSC837082), adavosertib (NSC754352), prexasertib (NSC758257), carboplatin (NSC241240) and oxaliplatin (NSC266046), were obtained from the National Cancer Institute (NCI) Developmental Therapeutics Program Chemical Repository (21). The FDA-approved anticancer drug set is available from the Developmental Therapeutics Program at https://dtp.cancer.gov/organization/dscb/obtaining/. […] The stock solutions were prepared in dimethyl sulfoxide (DMSO, Sigma-Aldrich, St. Louis, MO, cat. D2650), except for the platinum compounds which were prepared in saline (Quality Biological, Gaithersburg, MD, cat. 114-055-101), at 800-fold the tested concentration and stored at -70 degrees C prior to their use. All drugs and investigational agents were tested over a range starting from a high concentration at or near the clinical Cmax and decreasing in half-log increments. If the clinical Cmax for an agent had not been determined, the highest concentration tested was 10 microM, except for SN-38, which was tested at a high concentration of 1 microM.
Cell Culture. All cells were maintained in an incubator at 37 degrees C and 5% CO2 with 95% humidity. The PDC lines were cultured according to standard operating procedures established by the NCI PDMR (https://pdmr.cancer.gov). Table 3 of the manuscript, lists the cell lines along with the number of the three cell types plated to form the mct-spheroids and media for tumor cell growth. After thawing, all PDC lines, except 997537-175-T-J1-PDC and 415267-285-R-J2-PDC, were cultured in Matrigel-coated flasks prepared with a working solution of 1X Ham's F-12 nutrient mix, without supplementation (Thermo Fisher Scientific, cat. 11765054), 100 U/mL penicillin-streptomycin (Thermo Fisher Scientific, cat. 15140122), and 2.5% Matrigel (Corning Inc., Corning, NY, cat. 354248) for the first three passages. The two PDC lines 997537-175-T-J1-PDC and 415267-285-R-J2-PDC were cultured on uncoated flasks. The 857933-349-R-J2-PDC line was cultured in 6C/Colon 1B media containing advanced DMEM/F-12 (Thermo Fisher Scientific, cat. 12634028), 10 mM HEPES (Thermo Fisher Scientific, cat. 15630080), 1X GlutaMAX supplement (Thermo Fisher Scientific, cat. 35050061), 0.1 mg/mL primocin (InvivoGen, San Diego, CA, cat. ant-pm-2), 10% defined fetal bovine serum, heat inactivated (HyClone Laboratories Inc., Logan, UT, cat. SH30070.03HI), 50% L-WRN conditioned media (ATCC, cat. CRL-3276), 1.25 mM N-Acetyl-L-cysteine (Sigma-Aldrich, cat. A9165), 10 mM nicotinamide (Sigma-Aldrich, cat. N0636), 1X B-27 supplement (Thermo Fisher Scientific, cat. 17504044), 1X N-2 supplement (Thermo Fisher Scientific, cat. […]

[1] abbreviates: curve of first compound, second compound 0.0316 µM.
Setting [2] is: curve of first compound, second compound 0.1 µM.
[3] abbreviates: curve of first compound, second compound 0.316 µM.
[4] abbreviates: curve of first compound, second compound 1 µM.
The mark [5] stands for this setting: curve of first compound, second compound 3.16 µM.
Where [6] appears, read: curve of first compound, second compound 10 µM.
The mark [7] stands for this setting: second compound 0.0316 µM, first compound 0.0316 µM.
Setting [8] is: second compound 0.0316 µM, first compound 0.1 µM.
Where [9] appears, read: second compound 0.1 µM, first compound 0.0316 µM.
Setting [10] is: second compound 0.1 µM, first compound 0.1 µM.
[11] abbreviates: second compound 0.316 µM, first compound 0.0316 µM.
[12] abbreviates: second compound 0.316 µM, first compound 0.1 µM.
The mark [13] stands for this setting: second compound 1 µM, first compound 0.0316 µM.
[14] abbreviates: second compound 1 µM, first compound 0.1 µM.
Where [15] appears, read: second compound 3.16 µM, first compound 0.0316 µM.
The mark [16] stands for this setting: second compound 3.16 µM, first compound 0.1 µM.
Setting [17] is: second compound 10 µM, first compound 0.0316 µM.
[18] abbreviates: second compound 10 µM, first compound 0.1 µM.

Values joined by “and” are separate entries in the source; they are usually repeats but may differ in a detail not shown here. Identical values can stand only once.

As a reminder, the IC50 is the concentration at which inhibition is half-maximal. What is called viability, T/C is the result in the treated group divided by that in the control group, in per cent.
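Throughout, for viability, T/C: spheroids exposed to drugs for seven days before readout.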

As for `CC[C@@]1(O)C(=O)OCc2c1cc1n(c2=O)Cc2cc3c(CN(C)C)c(O)ccc3nc2-1` + Nc1ccc(C#CCN(C(=O)Cc2ncc(C(F)(F)F)cc2C(F)(F)F)c2ccc(F)cc2)nn1, the 50% inhibitory concentration (IC50) under setting [1] is above 100 nM; the concentration for half-maximal inhibition (IC50) under setting [2] was above 100 nM; the half-maximal inhibitory concentration (IC50) under setting [3] was above 100 nM; the half-inhibitory concentration (IC50) under setting [4] was above 100 nM; the IC50 under setting [5] is above 100 nM; the IC50 under setting [6] is above 100 nM. Also, the viability, T/C is 85% (second compound 0.0316 µM, first compound 0.000316 µM); 94% (second compound 0.0316 µM, first compound 0.001 µM); 82.8% (second compound 0.0316 µM, first compound 0.00316 µM); 100% (second compound 0.0316 µM, first compound 0.01 µM); 71.1% under setting [7]; 50.2% under setting [8]. For the same compound, the viability, T/C was 103% (second compound 0.1 µM, first compound 0.000316 µM); 85.8% (second compound 0.1 µM, first compound 0.001 µM); 91% (second compound 0.1 µM, first compound 0.00316 µM); 87.7% (second compound 0.1 µM, first compound 0.01 µM); 67.2% under setting [9]; 55.8% under setting [10]. For the same compound, the viability, T/C is 96.4% (second compound 0.316 µM, first compound 0.000316 µM); 81.4% (second compound 0.316 µM, first compound 0.001 µM); 90.5% (second compound 0.316 µM, first compound 0.00316 µM); 91.7% (second compound 0.316 µM, first compound 0.01 µM); 72% under setting [11]; 61.1% under setting [12]. Moreover, the viability, T/C (second compound 1 µM, first compound 0.000316 µM) is 85.1%; the viability, T/C (second compound 1 µM, first compound 0.001 µM) was 93.3%; the viability, T/C (second compound 1 µM, first compound 0.00316 µM) was 102%; the viability, T/C (second compound 1 µM, first compound 0.01 µM) is 93.9%; the viability, T/C under setting [13] was 63.8%; the viability, T/C under setting [14] was 49.2%. Moreover, the viability, T/C is 93.6% (second compound 3.16 µM, first compound 0.000316 µM); 98.2% (second compound 3.16 µM, first compound 0.001 µM); 95.3% (second compound 3.16 µM, first compound 0.00316 µM); 106% (second compound 3.16 µM, first compound 0.01 µM); 64.9% under setting [15]; 54.7% under setting [16]. The viability, T/C is, setting by setting: (second compound 10 µM, first compound 0.000316 µM) 85.9%; (second compound 10 µM, first compound 0.001 µM) 87.3%; (second compound 10 µM, first compound 0.00316 µM) 87.8%; (second compound 10 µM, first compound 0.01 µM) 92.9%; under setting [17], 69.2%; under setting [18], 50%.
As for `CCc1cc2c(N3CCc4c(cc(Cn5ccnc5)cc4-c4cn(C)nc4C(F)(F)F)C3=O)ccnc2c(OC)n1`, the viability, T/C was 85.3% and 83.1% and 106% (compound 0.0316 µM); 78.4% and 81% and 75.8% (compound 0.1 µM); 84.9% and 88.6% and 90.4% (compound 0.316 µM); 76% and 83.2% and 91.5% (compound 1 µM); 74.6% and 78.3% and 72.3% (compound 3.16 µM); 53.8% and 58.4% and 66.4% (compound 10 µM). Moreover, the IC50 (curve of compound) is above 10000 nM.
`CCCS(=O)(=O)Nc1ccc(F)c(C(=O)c2c[nH]c3ncc(-c4ccc(Cl)cc4)cc23)c1F`: the viability, T/C runs as follows: (compound 0.0316 µM) 101% and 86.2%; (compound 0.1 µM) 91.1% and 76%; (compound 0.316 µM) 87.4% and 96%; (compound 1 µM) 85.6% and 76.9%; (compound 3.16 µM) 72.9% and 74.4%; (compound 10 µM) 91.5% and 59.1%. Further, for the setting “curve of compound”, the IC50 is above 10000 nM.
On to `C=CC(=O)N1CCN(c2nc(=O)n(-c3c(C)ccnc3C(C)C)c3nc(-c4c(O)cccc4F)c(F)cc23)C(C)C1` (stereo not given), for which the viability, T/C by setting is: (compound 0.0316 µM) 96.7% and 98.3% and 89.5%; (compound 0.1 µM) 85.1% and 110% and 73.2%; (compound 0.316 µM) 104% and 107% and 95.8%; (compound 1 µM) 104% and 85.4% and 106%; (compound 3.16 µM) 92.8% and 96.1% and 113%; (compound 10 µM) 67.2% and 91% and 79.3%. Where the note is “curve of compound”, the IC50 is above 10000 nM.
As to `Nc1ccn(C2OC(CO)C(O)C2(F)F)c(=O)n1` (stereo not given) + COC1C(OC(N)=O)C(O)C(Oc2ccc3c(O)c(NC(=O)c4ccc(O)c(CC=C(C)C)c4)c(=O)oc3c2C)OC1(C)C, the 50% inhibitory concentration (IC50) under setting [1] was below 31.6 nM; the 50% inhibitory concentration (IC50) under setting [2] is below 31.6 nM; the half-maximal inhibitory concentration (IC50) under setting [3] was below 31.6 nM; the concentration for half-maximal inhibition (IC50) under setting [4] is below 31.6 nM; the IC50 under setting [5] is below 31.6 nM; the IC50 under setting [6] was below 31.6 nM. The viability, T/C is, setting by setting: under setting [7], 33.5%; under setting [8], 34.9%; (second compound 0.0316 µM, first compound 0.316 µM) 36.8%; (second compound 0.0316 µM, first compound 1 µM) 36.1%; (second compound 0.0316 µM, first compound 3.16 µM) 41.7%; (second compound 0.0316 µM, first compound 10 µM) 34.7%. Moreover, the viability, T/C is, setting by setting: under setting [9], 41.3%; under setting [10], 36.5%; (second compound 0.1 µM, first compound 0.316 µM) 34.9%; (second compound 0.1 µM, first compound 1 µM) 37.8%; (second compound 0.1 µM, first compound 3.16 µM) 37.3%; (second compound 0.1 µM, first compound 10 µM) 33.7%. The viability, T/C under setting [11] is 38.6%; the viability, T/C under setting [12] was 36.4%; the viability, T/C (second compound 0.316 µM, first compound 0.316 µM) is 39.4%; the viability, T/C (second compound 0.316 µM, first compound 1 µM) is 32.9%; the viability, T/C (second compound 0.316 µM, first compound 3.16 µM) was 36.9%; the viability, T/C (second compound 0.316 µM, first compound 10 µM) was 33.4%. The viability, T/C runs as follows: under setting [13], 38.9%; under setting [14], 36%; (second compound 1 µM, first compound 0.316 µM) 39.3%; (second compound 1 µM, first compound 1 µM) 31.7%; (second compound 1 µM, first compound 3.16 µM) 40%; (second compound 1 µM, first compound 10 µM) 35.7%. The viability, T/C by setting is: under setting [15], 43.5%; under setting [16], 34.6%; (second compound 3.16 µM, first compound 0.316 µM) 38%; (second compound 3.16 µM, first compound 1 µM) 30.8%; (second compound 3.16 µM, first compound 3.16 µM) 39.5%; (second compound 3.16 µM, first compound 10 µM) 31.2%. The viability, T/C was 38.4% under setting [17]; 37.8% under setting [18]; 38% (second compound 10 µM, first compound 0.316 µM); 32.8% (second compound 10 µM, first compound 1 µM); 32% (second compound 10 µM, first compound 3.16 µM); 32% (second compound 10 µM, first compound 10 µM).
